# Patent US20070128217A1 (priority 2003, published 2007)
# Assays:
# [1] = tested on: recombinant human anti-SARS-CoV antibody 03-018; format: binding; parameters: Binding of antibody 03-018 to linear peptides of the N protein of SARS-CoV Urbani / Binding of antibody 03-018 to looped/cyclic peptides of the N protein of SARS-CoV Urbani: unit not given here
# [2] = tested on: control sera (pooled serum of ten healthy LUMC hospital workers; commercial negative donor pooled serum from the Dutch bloodbank); format: binding, human; parameters: Binding of Control serum LUMC to linear peptides / Binding of Control serum Blood-bank to linear peptides / Binding of Control serum LUMC to looped peptides / Binding of Control Serum Blood-Bank to Looped peptides / Binding of Control serum LUMC to linear peptides of the protein M of SARS-CoV Urbani / Binding of Control serum Blood-bank to linear peptides of the protein M of SARS-CoV Urbani / Binding of Control serum LUMC to looped peptides of the protein M of SARS-CoV Urbani / Binding of Control Serum Blood-Bank to Looped peptides of the protein M of SARS-CoV Urbani: unit not given here
# [3] = tested on: rabbit serum obtained by immunizing a rabbit with the SARS-CoV strain Frankfurt 1; format: binding; parameters: Binding of a rabbit serum to linear peptides / Binding of a rabbit serum to looped peptides / Rabbit serum linear peptides / Rabbit serum looped peptides / Binding of a rabbit serum to linear peptides of protein N of SARS-CoV Urbani (Rabbit serum linear peptides) / Binding of a rabbit serum to looped/cyclic peptides of protein N of SARS-CoV Urbani (Rabbit serum looped peptides): unit not given here
# [4] = tested on: antibodies in sera from SARS patients (sera 1a, 1b, 2, 6, 37, 62, London, SARS-yellow, SARS-green); format: binding, human; parameters: Binding of serum 6 to linear peptides of protein X1 of SARS-CoV Urbani / Binding of serum 37 to linear peptides of protein X1 of SARS-CoV Urbani / Binding of serum 6 to looped/cyclic peptide (PEPSCAN-ELISA) / Binding of serum 37 to looped/cyclic peptide (PEPSCAN-ELISA) / Binding of serum 37 to looped/cyclic peptides of protein X1 of SARS-CoV Urbani / Binding of serum 6 to linear peptides of protein X2 / Binding of serum 37 to linear peptides of protein X2 / Binding of serum 37 to looped/cyclic peptides of protein X2 of SARS-CoV Urbani / Binding of serum 6 to linear peptides of protein M of SARS-CoV Urbani / Binding of serum 37 to linear peptides of protein M of SARS-CoV Urbani / Binding of serum 6 to looped/cyclic peptides of protein M of SARS-CoV Urbani / Binding of serum 37 to looped/cyclic peptides of protein M of SARS-CoV Urbani / Binding of serum 6 to linear peptides of protein X3 of SARS-CoV Urbani / Binding of serum 37 to linear peptides of protein X3 of SARS-CoV Urbani / Binding of serum 37 to looped/cyclic peptides of protein X3 of SARS-CoV Urbani / Binding of serum 6 to linear peptides of protein X4 of SARS-CoV Urbani / Binding of serum 37 to linear peptides of protein X4 of SARS-CoV Urbani / Binding of serum 37 to looped/cyclic peptides of protein X4 of SARS-CoV Urbani / Binding of serum 6 to linear peptides of protein X5 of SARS-CoV Urbani / Binding of serum 37 to linear peptides of protein X5 of SARS-CoV Urbani / Binding of serum 37 to looped/cyclic peptides of protein X5 of SARS-CoV Urbani / Binding of serum 6 to linear peptides of protein N of SARS-CoV Urbani / Binding of serum 37 to linear peptides of protein N of SARS-CoV Urbani / Binding of serum 6 to linear peptide (PEPSCAN-ELISA) / Binding of serum 1a to looped/cyclic peptides of protein N of SARS-CoV Urbani / Binding of serum 1b to looped/cyclic peptides of protein N of SARS-CoV Urbani / Binding of serum 2 to looped/cyclic peptides of protein N of SARS-CoV Urbani / Binding of serum 6 to looped/cyclic peptides of protein N of SARS-CoV Urbani / Binding of serum 37 to looped/cyclic peptides of protein N of SARS-CoV Urbani / Binding of serum 62 to looped/cyclic peptides of protein N of SARS-CoV Urbani / Binding of serum London to looped/cyclic peptides of protein N of SARS-CoV Urbani / Binding of serum SARS-green to looped/cyclic peptides of protein N of SARS-CoV Urbani: unit not given here
Sequence,Binding of antibody 03-018 to linear peptides of the N protein of SARS-CoV Urbani [1],Binding of antibody 03-018 to looped/cyclic peptides of the N protein of SARS-CoV Urbani [1],Binding of Control Serum Blood-Bank to Looped peptides [2],Binding of Control serum Blood-bank to linear peptides [2],Binding of Control serum LUMC to linear peptides [2],Binding of Control serum LUMC to looped peptides [2],Binding of a rabbit serum to linear peptides of protein N of SARS-CoV Urbani (Rabbit serum linear peptides) [3],Binding of a rabbit serum to looped/cyclic peptides of protein N of SARS-CoV Urbani (Rabbit serum looped peptides) [3],Binding of serum 1a to linear peptides of protein N of SARS-CoV Urbani [4],Binding of serum 1a to looped/cyclic peptides of protein N of SARS-CoV Urbani [4],Binding of serum 1b to linear peptides of protein N of SARS-CoV Urbani [4],Binding of serum 1b to looped/cyclic peptides of protein N of SARS-CoV Urbani [4],Binding of serum 2 to linear peptides of protein N of SARS-CoV Urbani [4],Binding of serum 2 to looped/cyclic peptides of protein N of SARS-CoV Urbani [4],Binding of serum 6 to linear peptides of protein N of SARS-CoV Urbani [4],Binding of serum 6 to looped/cyclic peptides of protein N of SARS-CoV Urbani [4],Binding of serum 37 to linear peptides of protein N of SARS-CoV Urbani [4],Binding of serum 37 to looped/cyclic peptides of protein N of SARS-CoV Urbani [4],Binding of serum 62 to linear peptides of protein N of SARS-CoV Urbani [4],Binding of serum 62 to looped/cyclic peptides of protein N of SARS-CoV Urbani [4],also measured
GARPKQRRPQGLPNN,0.1,0.2,0.5,0.7,0.7,0.6,0.1,0.2,0.2,0.3,0.1,0.1,0.2,0.4,0.1,0.3,0.4,0.4,0.6,0.5,Binding of serum London to linear peptides of protein N of SARS-CoV Urbani [4]: 0.5; Binding of serum London to looped/cyclic peptides of protein N of SARS-CoV Urbani [4]: 0.4; Binding of serum SARS-green to linear peptides of protein N of SARS-CoV Urbani [4]: 0.3; Binding of serum SARS-green to looped/cyclic peptides of protein N of SARS-CoV Urbani [4]: 0.4; Binding of serum SARS-yellow to linear peptides of protein N of SARS-CoV Urbani [4]: 0.6; Binding of serum SARS-yellow to looped/cyclic peptides of protein N of SARS-CoV Urbani [4]: 0.2
GGDGKMKELSPRWYF,0.1,0.2,0.8,0.8,0.7,0.7,0.1,0.5,0.3,0.3,0.1,0.2,0.2,0.6,0.2,0.3,0.6,0.6,0.7,0.6,Binding of serum London to linear peptides of protein N of SARS-CoV Urbani [4]: 0.4; Binding of serum London to looped/cyclic peptides of protein N of SARS-CoV Urbani [4]: 0.5; Binding of serum SARS-green to linear peptides of protein N of SARS-CoV Urbani [4]: 0.2; Binding of serum SARS-green to looped/cyclic peptides of protein N of SARS-CoV Urbani [4]: 0.5; Binding of serum SARS-yellow to linear peptides of protein N of SARS-CoV Urbani [4]: 0.7; Binding of serum SARS-yellow to looped/cyclic peptides of protein N of SARS-CoV Urbani [4]: 0.6
